Test results as given in patent US10266807B2, “Methods and compositions for culturing endoderm progenitor cells in suspension” (FUJIFILM Cellular Dynamics, Inc., priority 2013, dated 2019).

Experiments:
Type in all cases: cell-based, human
[1] = tested on: undifferentiated iPSCs (2.038); experiment: Generation of definitive endoderm (DE) from undifferentiated iPSCs with or without CHIR; conditions: for CXCR4/CD117 co-expressing cells / Output DE Day 7: 2 μM CHIR (+)
Description: Undifferentiated iPSCs maintained using Essential 8 on Matrigel were plated at a seeding density of 13,000 cells/cm^2 on Matrigel. Four days-post-plating, the cells were placed in 90% RPMI/10% SFD media containing 100 ng/mL Activin A for one day followed by incubation with 90% RPMI/10% SFD supplemented with 100 ng/mL Activin A, 2.5 ng/mL BMP4, 10 ng/mL VEGF, and 10 ng/mL zebrafish FGF2 for the next two days. From day 4-12, the cells were placed in SFD media supplemented with 100 ng/mL Activin A, 2.5 ng/mL BMP4, 10 ng/mL VEGF, and 10 ng/mL zebrafish FGF2. Supplementation with 2 μM CHIR was included in one set at day 1 of differentiation while it was omitted in another set. The cells were harvested on day 7 using TrypLE. The total viable cell number post digestion was determined at each time point. The percentage of CXCR4, CD117 co-expressing cells was determined by cell surface staining by flow cytometry (Table 1). The absolute number of CXCR4/CD117 double-positive cells was calculated. The ratio of input iPSC to output DE was also quantified (Table 1).

[2] = tested on: beta cells derived from 2.038AT4 cells; experiment: C-peptide release assay (glucose responsiveness) of end-stage beta cells
Description: C-peptide release assays were performed as previously described (D'Amour et al., 2006) using a Mercodia Ultrasensitive C-peptide ELISA kit (Mercodia). Briefly, aggregates that were beyond day 25 in the beta cell differentiation protocol from each iPSC clone were placed in a millicell PCF insert within a 24 well plate. The aggregates were equilibrated in 1 ml KRBH medium for one hour at 37° C. and 5% CO2, 20% O2. The aggregates were next placed in a second well containing 0.5 ml KRBH medium supplemented with serially increasing levels of glucose from 1-20 mM. Each incubation lasted for 20 mins at 37° C. and 5% CO2, 20% O2. Extreme care was taken to drain the aggregates of all residual fluid between well transfers. The supernatant left behind was collected and stored at −20° C. At the end of the experiment the aggregates were digested with TryPLE and the total viable cell count per sample was determined to normalize the data. C-peptide secretion was normalized based on the total viable cell number taken for each sample.
C-peptide release assays were performed as described in Example 12. Beta cell cultures induced with Dox induction between days 10-15 generated a response to between 1-5 mM glucose (FIG. 28). […]
The experiment was performed again with the addition of Dox (1.5 μg/ml) between day 10-15 of beta cell differentiation. […] Glucagon expression was not recorded. […]

2.038AT4 cells [3] = experiment: qPCR analysis of ERG and GFI expression; conditions: Dox induction during beta cell differentiation
Description: The levels of ERG (FIG. 32A) and GFI (FIG. 32B) transcripts at different stages of the process were quantified from 2.038 and 2.038AT4 cells. Dox induction of 2.038AT4 cells was only applied at the beta cell differentiation stage. Cells from 2.038AT4 were always cultured in media containing neomycin (100 μg/mL) and puromycin (600 ng/mL) regardless of stage of differentiation. RNA was isolated from undifferentiated iPSC, DE, EPC, and beta cell cultures derived from 2.038 cells and 2.038AT4 cells using the RNeasy Plus Mini Kit from Qiagen (Catalog #74136) according to the manufacturer's directions. RNA quantification was performed using the Nanodrop 2000. RNA was reverse transcribed with the ImProm-II RT System from Promega (Catalog # A3800) according to manufacturer's directions. rt-qPCR was performed using TaqMan Gene Expression Master Mix (Catalog #4369016) and TaqMan probes (ERG: Hs01554629_m1; GFI1: Hs00382207_m1; GAPDH: Hs99999905_m1) with technical triplicates and run on the Roche LightCycler for 45 cycles. Fold induction was calculated by DeltaCp with normalization to GAPDH. Undifferentiated iPSCs of the same genetic background were used as negative controls. Whole pancreas RNA (Ambion Catalog # AM7954) and human islets provided by the UW Islet Core were used as positive controls.

2.038AT4 cells [4] = experiment: Beta cell differentiation of 2.038AT4 EPCs with Dox induction, intracellular flow cytometry; conditions: Dox 1.5 μg/ml between day 10-15, harvested day 15, repeat experiment
Description: 2.038AT4.14EGN (also called 2.038AT4) cells were maintained in Essential 8 under hypoxic conditions during DE induction without CHIR using 2.5 ng/ml BMP4. DE were maintained in EPC cycling media without MEFs under hypoxic conditions. Media was supplemented with neomycin (100 ug/ml) and puromycin (600 ng/ml) for iPSC culture, DE culture, and EPC cycling. At P7, EPC were harvested and MACS purification was performed using CD34/CXCR4/CD117. Purified cells were plated on neat Matrigel in the presence of a Rock inhibitor.
Beta cell differentiation was initiated 5 days post re-aggregation according to the protocol described by Nostro et al. (2011) further modified by Cheng et al. (2012a) in a 2D format. Dox was added at different stages of the beta cell differentiation process. Dox (1.5 μg/ml) induction was performed between days 6-15 of beta cell differentiation, between days 8-15 of beta cell differentiation, or between days 10-15 of beta cell differentiation. The cells were harvested on day 15 of beta cell differentiation, fixed, and stained for quantification of PDX/NeuroD1/C-peptide/Glucagon/Somatostatin by intracellular flow cytometry.
The experiment was performed again with the addition of Dox (1.5 μg/ml) between day 10-15 of beta cell differentiation. The cells were harvested on day 15 of beta cell differentiation and assayed for PDX/NeuroD1/C-Peptide/Glucagon/Somatostatin expression levels by intracellular flow cytometry. […] The total C-Peptide levels were around 10% of which 5% of cells appeared monohormonal. Glucagon expression was not recorded. C-peptide release assays were performed as described above. […] Both the Dox induced and un-induced beta cell cultures were capable of eliciting a dose-dependent response to glucose (FIG. 30).

SMILES	CXCR4/CD117 co-expressing cells ([1]; cell line 2.038 (1131), format 6 well, harvested day 7)	Output DE Day 7 ([1]; cell line 2.038 (1131), format 6 well, input iPSCs 1.95 ×10^6)	CXCR4/CD117 co-expressing cells ([1]; cell line 2.038, format T150, harvested day 7)	Output DE Day 7 ([1]; cell line 2.038, format T150, input iPSCs 5.85 ×10^6)	Effect on efficiency of DE formation ([1]; CHIR added on day zero of endoderm induction)	Glucose concentration range of dose-dependent C-peptide response ([2]; Dox 1.5 μg/ml between day 10-15, repeat experiment, un-induced cultures also responded)	Glucose concentration range eliciting C-peptide response ([2]; Dox induction between days 10-15)	Level of ERG/GFI transcripts (2.038AT4 cells [3])	Monohormonal cells (2.038AT4 cells [4])	PDX/NeuroD1 expression (2.038AT4 cells [4])	Total C-Peptide levels (2.038AT4 cells [4])
Cc1c[nH]c(-c2cnc(NCCNc3ccc(C#N)cn3)nc2-c2ccc(Cl)cc2Cl)n1 [CHIR, CHIR99021]	45%	84 ×10^6	54%	186 ×10^6	did not result in increased efficiency of DE formation						
C[C@H]1c2cccc(O)c2C(=O)C2=C(O)[C@]3(O)C(=O)C(C(N)=O)=C(O)[C@@H](N(C)C)[C@@H]3[C@@H](O)[C@@H]21 [Dox, Doxycycline]						1 to 15 mM	1 to 5 mM	slight increase	5%	25%-30	around 10%
